Values after ≈ are worked out from the molar mass of the structure shown.
Columns and labels:
Format in all cases: functional
[1] = tested on: Staphylococcus aureus; assay: Antibacterial activity against Staphylococcus aureus assessed as inhibition of bacterial growth incubated for 18 hrs by two fold broth microdilution assay
[2] = tested on: Pseudomonas aeruginosa; assay: Antibacterial activity against Pseudomonas aeruginosa assessed as inhibition of bacterial growth incubated for 18 hrs by two fold broth microdilution assay
[3] = tested on: Pseudomonas aeruginosa; assay: Antibacterial activity against Pseudomonas aeruginosa ATCC 27853 assessed as inhibition of bacterial growth incubated for 18 hrs by two fold broth microdilution assay
[4] = tested on: Klebsiella pneumoniae; assay: Antibacterial activity against Klebsiella pneumoniae assessed as inhibition of bacterial growth incubated for 18 hrs by two fold broth microdilution assay
[5] = tested on: Staphylococcus aureus; assay: Antibacterial activity against Staphylococcus aureus ATCC 25923 assessed as inhibition of bacterial growth incubated for 18 hrs by two fold broth microdilution assay
[6] = tested on: Enterococcus faecalis; assay: Antibacterial activity against Enterococcus faecalis assessed as inhibition of bacterial growth incubated for 18 hrs by two fold broth microdilution assay
[7] = tested on: Staphylococcus aureus; assay: Antibacterial activity against Staphylococcus aureus ATCC 29213 assessed as inhibition of bacterial growth incubated for 18 hrs by two fold broth microdilution assay
[8] = tested on: Staphylococcus aureus; assay: Antibacterial activity against methicilin-resistant Staphylococcus aureus N315 assessed as inhibition of bacterial growth incubated for 18 hrs by two fold broth microdilution assay
[9] = tested on: Acinetobacter baumannii; assay: Antibacterial activity against Acinetobacter baumannii assessed as inhibition of bacterial growth incubated for 18 hrs by two fold broth microdilution assay
[10] = tested on: Escherichia coli; assay: Antibacterial activity against Escherichia coli assessed as inhibition of bacterial growth incubated for 18 hrs by two fold broth microdilution assay
[11] = tested on: Escherichia coli; assay: Antibacterial activity against Escherichia coli ATCC 25922 assessed as inhibition of bacterial growth incubated for 18 hrs by two fold broth microdilution assay

SMILES	MIC [1] [µg/mL]	MIC [2] [µg/mL]	MIC [3] [µg/mL]	MIC [4] [µg/mL]	MIC [5] [µg/mL]	MIC [6] [µg/mL]	MIC [7] [µg/mL]	MIC [8] [µg/mL]	MIC [9] [µg/mL]	MIC [10] [µg/mL]	MIC [11] [µg/mL]
CC(=O)Nc1ccc(S(=O)(=O)/C(C#N)=C/c2cn(Cc3ccc(Cl)c(Cl)c3)c3ccccc23)cc1	128 (≈ 244 µM)	128 (≈ 244 µM)	16 (≈ 30.5 µM)	64 (≈ 122 µM)	32 (≈ 61 µM)	128 (≈ 244 µM)	4 (≈ 7.63 µM)	256 (≈ 488 µM)	32 (≈ 61 µM)	128 (≈ 244 µM)	256 (≈ 488 µM)
CC(=O)Nc1ccc(S(=O)(=O)/C(C#N)=C/c2c[nH]c3ccc([N+](=O)[O-])cc23)cc1	32 (≈ 78 µM)	64 (≈ 156 µM)	32 (≈ 78 µM)	64 (≈ 156 µM)	128 (≈ 312 µM)	32 (≈ 78 µM)	32 (≈ 78 µM)	64 (≈ 156 µM)	8 (≈ 19.5 µM)	64 (≈ 156 µM)	64 (≈ 156 µM)
CCCCn1cc(/C=C(\C#N)S(=O)(=O)c2ccc(NC(C)=O)cc2)c2ccccc21	2 (≈ 4.74 µM)	4 (≈ 9.49 µM)	8 (≈ 19 µM)	8 (≈ 19 µM)	1 (≈ 2.37 µM)	4 (≈ 9.49 µM)	8 (≈ 19 µM)	256 (≈ 607 µM)	1 (≈ 2.37 µM)	64 (≈ 152 µM)	4 (≈ 9.49 µM)
CCn1cc(C(=O)O)c(=O)c2cc(F)c(N3CCNCC3)cc21 [NORFLOXACIN]	2 (≈ 6.26 µM)	2 (≈ 6.26 µM)	4 (≈ 12.5 µM)	2 (≈ 6.26 µM)	2 (≈ 6.26 µM)	4 (≈ 12.5 µM)	1 (≈ 3.13 µM)	8 (≈ 25.1 µM)	4 (≈ 12.5 µM)	4 (≈ 12.5 µM)	4 (≈ 12.5 µM)
N#C/C(=C\c1c[nH]c2cccc(Cl)c12)S(=O)(=O)c1ccc(N)cc1	32 (≈ 89.4 µM)	64 (≈ 179 µM)	64 (≈ 179 µM)	4 (≈ 11.2 µM)	128 (≈ 358 µM)	32 (≈ 89.4 µM)	32 (≈ 89.4 µM)	64 (≈ 179 µM)	16 (≈ 44.7 µM)	256 (≈ 715 µM)	64 (≈ 179 µM)
CC(=O)Nc1ccc(S(=O)(=O)/C(C#N)=C/c2c[nH]c3c(C)cccc23)cc1	32 (≈ 84.3 µM)	64 (≈ 169 µM)	64 (≈ 169 µM)	4 (≈ 10.5 µM)	128 (≈ 337 µM)	32 (≈ 84.3 µM)	32 (≈ 84.3 µM)	64 (≈ 169 µM)	16 (≈ 42.2 µM)	4 (≈ 10.5 µM)	4 (≈ 10.5 µM)
N#C/C(=C\c1c[nH]c2ccccc12)S(=O)(=O)c1ccc(N)cc1	32 (≈ 99 µM)	4 (≈ 12.4 µM)	1 (≈ 3.09 µM)	1 (≈ 3.09 µM)	128 (≈ 396 µM)	32 (≈ 99 µM)	32 (≈ 99 µM)	64 (≈ 198 µM)	8 (≈ 24.7 µM)	2 (≈ 6.18 µM)	4 (≈ 12.4 µM)
CC(=O)Nc1ccc(S(=O)(=O)/C(C#N)=C/c2cn(Cc3cccc(F)c3)c3ccccc23)cc1	64 (≈ 135 µM)	64 (≈ 135 µM)	16 (≈ 33.8 µM)	256 (≈ 541 µM)	16 (≈ 33.8 µM)	32 (≈ 67.6 µM)	16 (≈ 33.8 µM)	256 (≈ 541 µM)	16 (≈ 33.8 µM)	128 (≈ 270 µM)	64 (≈ 135 µM)
CC(=O)Nc1ccc(S(=O)(=O)/C(C#N)=C/c2cn(CCO)c3ccccc23)cc1	2 (≈ 4.88 µM)	4 (≈ 9.77 µM)	8 (≈ 19.5 µM)	2 (≈ 4.88 µM)	2 (≈ 4.88 µM)	4 (≈ 9.77 µM)	2 (≈ 4.88 µM)	32 (≈ 78.2 µM)	32 (≈ 78.2 µM)	4 (≈ 9.77 µM)	1 (≈ 2.44 µM)
N#C/C(=C\c1cn(Cc2ccc(F)cc2F)c2ccccc12)S(=O)(=O)c1ccc(N)cc1	32 (≈ 71.2 µM)	64 (≈ 142 µM)	64 (≈ 142 µM)	4 (≈ 8.9 µM)	64 (≈ 142 µM)	256 (≈ 570 µM)	8 (≈ 17.8 µM)	256 (≈ 570 µM)	16 (≈ 35.6 µM)	256 (≈ 570 µM)	64 (≈ 142 µM)
C#CCn1cc(/C=C(\C#N)S(=O)(=O)c2ccc(N)cc2)c2ccccc21	4 (≈ 11.1 µM)	0.5 (≈ 1.38 µM)	4 (≈ 11.1 µM)	8 (≈ 22.1 µM)	16 (≈ 44.3 µM)	2 (≈ 5.53 µM)	2 (≈ 5.53 µM)	2 (≈ 5.53 µM)	0.5 (≈ 1.38 µM)	128 (≈ 354 µM)	256 (≈ 708 µM)
CC(=O)Nc1ccc(S(=O)(=O)/C(C#N)=C/c2cn(CCN(C)C)c3ccccc23)cc1	128 (≈ 293 µM)	64 (≈ 147 µM)	16 (≈ 36.7 µM)	8 (≈ 18.3 µM)	16 (≈ 36.7 µM)	256 (≈ 586 µM)	2 (≈ 4.58 µM)	128 (≈ 293 µM)	32 (≈ 73.3 µM)	128 (≈ 293 µM)	64 (≈ 147 µM)
C#CCn1cc(/C=C(\C#N)S(=O)(=O)c2ccc(NC(C)=O)cc2)c2ccccc21	2 (≈ 4.96 µM)	4 (≈ 9.91 µM)	2 (≈ 4.96 µM)	4 (≈ 9.91 µM)	4 (≈ 9.91 µM)	4 (≈ 9.91 µM)	8 (≈ 19.8 µM)	2 (≈ 4.96 µM)	8 (≈ 19.8 µM)	8 (≈ 19.8 µM)	2 (≈ 4.96 µM)
CC(=O)Nc1ccc(S(=O)(=O)/C(C#N)=C/c2cn(Cc3ccccc3Cl)c3ccccc23)cc1	2 (≈ 4.08 µM)	2 (≈ 4.08 µM)	4 (≈ 8.16 µM)	2 (≈ 4.08 µM)	4 (≈ 8.16 µM)	4 (≈ 8.16 µM)	8 (≈ 16.3 µM)	16 (≈ 32.7 µM)	8 (≈ 16.3 µM)	2 (≈ 4.08 µM)	1 (≈ 2.04 µM)
CCOC(=O)Cn1cc(/C=C(\C#N)S(=O)(=O)c2ccc(NC(C)=O)cc2)c2ccccc21	128 (≈ 283 µM)	8 (≈ 17.7 µM)	128 (≈ 283 µM)	64 (≈ 142 µM)	64 (≈ 142 µM)	128 (≈ 283 µM)	16 (≈ 35.4 µM)	256 (≈ 567 µM)	128 (≈ 283 µM)	32 (≈ 70.9 µM)	256 (≈ 567 µM)
N#C/C(=C\c1cn(CC2CCCCC2)c2ccccc12)S(=O)(=O)c1ccc(N)cc1	16 (≈ 38.1 µM)	4 (≈ 9.53 µM)	2 (≈ 4.77 µM)	4 (≈ 9.53 µM)	2 (≈ 4.77 µM)	8 (≈ 19.1 µM)	2 (≈ 4.77 µM)	1 (≈ 2.38 µM)	32 (≈ 76.3 µM)	4 (≈ 9.53 µM)	2 (≈ 4.77 µM)
CCCCCCn1cc(/C=C(\C#N)S(=O)(=O)c2ccc(NC(C)=O)cc2)c2ccccc21	256 (≈ 569 µM)	4 (≈ 8.9 µM)	8 (≈ 17.8 µM)	256 (≈ 569 µM)	4 (≈ 8.9 µM)	4 (≈ 8.9 µM)	1 (≈ 2.22 µM)	32 (≈ 71.2 µM)	8 (≈ 17.8 µM)	8 (≈ 17.8 µM)	8 (≈ 17.8 µM)
CCN(CC)C(=O)Cn1cc(/C=C(\C#N)S(=O)(=O)c2ccc(NC(C)=O)cc2)c2ccccc21	256 (≈ 535 µM)	32 (≈ 66.9 µM)	256 (≈ 535 µM)	64 (≈ 134 µM)	8 (≈ 16.7 µM)	128 (≈ 267 µM)	2 (≈ 4.18 µM)	128 (≈ 267 µM)	128 (≈ 267 µM)	32 (≈ 66.9 µM)	128 (≈ 267 µM)
CCn1cc(/C=C(\C#N)S(=O)(=O)c2ccc(N)cc2)c2ccccc21	1 (≈ 2.85 µM)	1 (≈ 2.85 µM)	8 (≈ 22.8 µM)	8 (≈ 22.8 µM)	64 (≈ 182 µM)	8 (≈ 22.8 µM)	1 (≈ 2.85 µM)	16 (≈ 45.5 µM)	1 (≈ 2.85 µM)	8 (≈ 22.8 µM)	8 (≈ 22.8 µM)

From ChEMBL document CHEMBL5625248, “Identification of unique indolylcyanoethylenyl sulfonylanilines as novel structural scaffolds of potential antibacterial agents” (Eur J Med Chem, 2023)
